{
  "source": "ChEMBL document CHEMBL1157123",
  "about": "“First identification of xanthone sulfonamides as potent acyl-CoA:cholesterol acyltransferase (ACAT) inhibitors” (Bioorg Med Chem Lett, 2010)",
  "note": "The source made the active and inactive calls. The rule behind the calls is not given here.",
  "data": [
    {"biological_target": "T1, Sterol O-acyltransferase 1 (Homo sapiens) (UniProt P35610)", "T1 sequence (whole entry)": "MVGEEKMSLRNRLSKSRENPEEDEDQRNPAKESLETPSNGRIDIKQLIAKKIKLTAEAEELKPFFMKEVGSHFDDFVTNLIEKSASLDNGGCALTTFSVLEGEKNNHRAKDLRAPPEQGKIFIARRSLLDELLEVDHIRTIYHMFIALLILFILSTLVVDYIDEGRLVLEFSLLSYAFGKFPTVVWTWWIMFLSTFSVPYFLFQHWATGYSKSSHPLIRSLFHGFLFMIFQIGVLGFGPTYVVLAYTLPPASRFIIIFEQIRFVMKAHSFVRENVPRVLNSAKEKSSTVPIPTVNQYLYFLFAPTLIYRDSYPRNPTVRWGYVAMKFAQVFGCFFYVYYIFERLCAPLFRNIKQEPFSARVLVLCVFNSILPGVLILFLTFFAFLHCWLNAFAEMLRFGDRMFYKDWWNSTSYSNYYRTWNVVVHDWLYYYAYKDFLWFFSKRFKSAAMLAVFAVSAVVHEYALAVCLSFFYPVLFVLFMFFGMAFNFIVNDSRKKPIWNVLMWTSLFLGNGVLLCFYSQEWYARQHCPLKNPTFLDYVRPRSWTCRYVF", "test": "Inhibition of ACAT at 10 ug/ml", "values": [
      {"compound": "COc1ccc(N2CCN(S(=O)(=O)c3c(OC)cc(OC)c4c(=O)c5cc(OC)c(OC)cc5oc34)CC2)cc1", "inhibition": "36.9%"},
      {"compound": "COc1cc2oc3c(S(=O)(=O)NCc4cccc(Cl)c4)c(OC)cc(OC)c3c(=O)c2cc1OC", "inhibition": "15.8%"},
      {"compound": "CCN(CC)C(=O)C1CCCN(S(=O)(=O)c2c(OC)cc(OC)c3c(=O)c4cc(OC)c(OC)cc4oc23)C1", "note": "(centres undefined)", "inhibition": "12.6%"},
      {"compound": "COc1cc2oc3c(S(=O)(=O)N4CCN(C)CC4)c(OC)cc(OC)c3c(=O)c2cc1OC", "inhibition": "14.5%"},
      {"compound": "COc1cc2oc3c(S(=O)(=O)N4CCCCC4)c(OC)cc(OC)c3c(=O)c2cc1OC", "inhibition": "10.5%"},
      {"compound": "COc1cc2oc3c(S(=O)(=O)NCc4ccc5ccccc5c4)c(OC)cc(OC)c3c(=O)c2cc1OC", "inhibition": "25%"},
      {"compound": "COc1cc2oc3c(S(=O)(=O)N4CCN(c5cccc(C)c5)CC4)c(OC)cc(OC)c3c(=O)c2cc1OC", "inhibition": "64.8%"},
      {"compound": "CCOC(=O)CN(C)S(=O)(=O)c1c(OC)cc(OC)c2c(=O)c3cc(OC)c(OC)cc3oc12", "inhibition": "16.8%"},
      {"compound": "COc1ccc(CCCN(C)S(=O)(=O)c2c(OC)cc(OC)c3c(=O)c4cc(OC)c(OC)cc4oc23)cc1OC", "inhibition": "30.1%"},
      {"compound": "COc1cc2oc3c(S(=O)(=O)NCc4ccc(F)cc4)c(OC)cc(OC)c3c(=O)c2cc1OC", "inhibition": "10.2%"},
      {"compound": "COc1cc2oc3c(S(=O)(=O)NC(c4ccccc4)c4ccccc4)c(OC)cc(OC)c3c(=O)c2cc1OC", "inhibition": "inactive"},
      {"compound": "CCCNS(=O)(=O)c1c(OC)cc(OC)c2c(=O)c3cc(OC)c(OC)cc3oc12", "inhibition": "inactive"},
      {"compound": "CCCCCCCCCC[Si](C)(C)CCC(=O)NC(Cc1ccc(C)cc1)c1ccccc1", "note": "(centres undefined)", "inhibition": "55%"},
      {"compound": "COC(=O)CNS(=O)(=O)c1c(OC)cc(OC)c2c(=O)c3cc(OC)c(OC)cc3oc12", "inhibition": "5.13%"},
      {"compound": "COc1cc2oc3c(S(=O)(=O)N4CCC(N(C)C)C4)c(OC)cc(OC)c3c(=O)c2cc1OC", "note": "(centres undefined)", "inhibition": "21%"},
      {"compound": "COc1cc2oc3c(S(=O)(=O)NCC(C)c4ccccc4)c(OC)cc(OC)c3c(=O)c2cc1OC", "note": "(centres undefined)", "inhibition": "10.8%"},
      {"compound": "COc1cc2oc3c(S(=O)(=O)NOCc4ccccc4)c(OC)cc(OC)c3c(=O)c2cc1OC", "inhibition": "16.8%"},
      {"compound": "CNS(=O)(=O)c1c(OC)cc(OC)c2c(=O)c3cc(OC)c(OC)cc3oc12", "inhibition": "inactive"},
      {"compound": "COc1cc2oc3c(S(=O)(=O)N4CC=C(c5ccccc5)CC4)c(OC)cc(OC)c3c(=O)c2cc1OC", "inhibition": "51.3%"},
      {"compound": "COc1cc2oc3c(S(=O)(=O)N4CCN(c5ccccn5)CC4)c(OC)cc(OC)c3c(=O)c2cc1OC", "inhibition": "43.6%"},
      {"compound": "COc1cc2oc3c(S(=O)(=O)N4C[C@@H](C)O[C@@H](C)C4)c(OC)cc(OC)c3c(=O)c2cc1OC", "inhibition": "8.84%"},
      {"compound": "COc1cc2oc3c(S(=O)(=O)NCCc4ccc(C)c(C)c4)c(OC)cc(OC)c3c(=O)c2cc1OC", "inhibition": "11.9%"},
      {"compound": "CCOC(=O)C1CCCN(S(=O)(=O)c2c(OC)cc(OC)c3c(=O)c4cc(OC)c(OC)cc4oc23)C1", "note": "(centres undefined)", "inhibition": "7.99%"},
      {"compound": "COc1cc2oc3c(S(=O)(=O)NC4CC4)c(OC)cc(OC)c3c(=O)c2cc1OC", "inhibition": "inactive"}
    ]}
  ]
}
